Results reported in article PMC3974814, “In Vitro Evaluation of the Inhibitory Potential of Pharmaceutical Excipients on Human Carboxylesterase 1A and 2” (PLoS ONE, 2014).

Key:
[1] = biological target: T1, recombinant human CES1A1 (Homo sapiens, UniProt P23141); assay: Imidapril hydrolase activity (imidaprilat formation) of recombinant CES1A1; type: biochemical
T1 construct: purchased BD Gentest (Woburn, MA); host or cells: baculovirus-insect cells
T1 sequence (P23141 18-567): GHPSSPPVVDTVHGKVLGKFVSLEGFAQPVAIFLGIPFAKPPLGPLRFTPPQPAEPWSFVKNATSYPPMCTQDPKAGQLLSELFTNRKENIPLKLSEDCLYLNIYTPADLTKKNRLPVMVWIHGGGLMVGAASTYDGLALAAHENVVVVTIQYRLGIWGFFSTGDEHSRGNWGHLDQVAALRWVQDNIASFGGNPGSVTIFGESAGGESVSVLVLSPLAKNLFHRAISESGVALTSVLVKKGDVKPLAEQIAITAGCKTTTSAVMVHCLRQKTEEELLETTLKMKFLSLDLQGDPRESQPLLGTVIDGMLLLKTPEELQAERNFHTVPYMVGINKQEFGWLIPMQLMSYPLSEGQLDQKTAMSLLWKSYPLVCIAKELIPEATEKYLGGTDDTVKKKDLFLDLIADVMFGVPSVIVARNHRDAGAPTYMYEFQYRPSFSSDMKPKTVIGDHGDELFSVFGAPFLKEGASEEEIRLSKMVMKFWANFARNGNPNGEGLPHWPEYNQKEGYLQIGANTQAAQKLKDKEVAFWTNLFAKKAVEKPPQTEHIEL
Procedure: (§1) Formation of imidaprilat from imidapril was determined according to the method described previously with a slight modification. The incubation mixture (200 μl of total volume), including the microsomes, 100 mM Tris-HCl buffer (pH 7.4) and inhibitors, was preincubated at 37°C for 2 min. The reaction was initiated by the addition of imidapril (100 μM), followed by incubation of the mixture at 37°C for 15 min. The reaction was terminated by adding 200 μl of ice-cold ethyl acetate and the mixture was next dried under N2. Cetirizine was added as an internal standard. After centrifugation at 15000 g for 5 min, imidaprilat in the supernatant (10 μl) was quantified employing a liquid chromatography-tandem mass spectrometry system. Diamonsil C18 (5 μm,150×2.1 mm) was used as the analytical column, with acetonitrile-0.1% (v/v) formic acid (1∶2, v/v) as the mobile phase at a flow rate of 0.3 mL·min^−1. The calibration curve of imidaprilat in the incubation mixture was linear over a concentration range of 5–1000 ng·ml^−1 (r = 0.9991). Interday and intraday coefficients of variation of the different quality control samples were both less than 10%.
The inhibitory effects of 25 excipients on imidapril and CPT-11 hydrolase activities were investigated. These excipients were classified into 6 groups based on their chemical and physical characteristics: (1) Adhesives: HPC, PVP, CMC-Na, PEG4000, PEG6000 and sodium alginate; (2) Fillers: lactose, MCC and mannitol; (3) Co-solvents: PG, glycerin, PEG200 and PEG400; (4) Surfactants: Tween 20, Tween 80, SLS, S40, F68, Triton X-100, RH40 and EL35; (5) Absorption enhancers: lecithin and oleic acid; (6)Antioxidants: Vit.C and NaHSO3. […] All data were analysed using the mean of duplicate determinations. […]
(§2) The Ki, Km and Vmax values and inhibition types were determined by fitting the kinetic data to a competitive, noncompetitive, uncompetitive or mixed inhibition model by the Enzyme Kinetics Module using SigmaPlot 12.0 (Systat Software, Inc., San Jose, CA). […]

[2] = biological target: T2, human liver microsomes (HLM) (Homo sapiens, UniProt P23141); assay: Imidapril hydrolase activity (imidaprilat formation) of HLM; type: biochemical
T2 construct: Pooled human liver microsomes (HLM) were purchased from BD Gentest; tissue BD Gentest (Woburn, MA); host or cells: pooled human liver microsomes
T2 sequence (P23141 18-567): T1 sequence (P23141 18-567)
Procedure: as §1, with “The calibration curve of imidaprilat in the incubation mixture was linear over a concentration range of 5–1000 ng·ml^−1 (r = 0.9991). Interday and intraday coefficients of variation of the different quality control samples were both less than 10%.” left out
The inhibitory effects of 25 excipients on imidapril and CPT-11 hydrolase activities were investigated. […] All data were analysed using the mean of duplicate determinations. […]
as §2

[3] = biological target: T1, recombinant human CES1A1; assay: p-Nitrophenyl acetate hydrolase activity of recombinant CES1A1; type: biochemical
Procedure: (§3) p-Nitrophenyl acetate hydrolase activity was determined according to the methods described previously.
(§4) To compare the inhibitory effects, the enzyme activities at 150 μM p-nitrophenyl acetate were examined. The concentrations of the tested excipients were 500 μM, except that F68, EL35, RH40, lecithin, PVP and Sodium alginate were 100 μg/ml. […] The concentration range of inhibitors was as follows: SLS, 0.02–0.5 μg/ml, RH40, 0.1–5 μg/ml, Tween 20, 0.5–15 μg/ml, and EL 35, 3–40 μg/ml.

[4] = biological target: T3, recombinant human CES2 (Homo sapiens, UniProt O00748); assay: p-Nitrophenyl acetate hydrolase activity of recombinant CES2; type: biochemical
T3 construct: purchased BD Gentest (Woburn, MA); host or cells: baculovirus-insect cells
T3 sequence (O00748 27-559): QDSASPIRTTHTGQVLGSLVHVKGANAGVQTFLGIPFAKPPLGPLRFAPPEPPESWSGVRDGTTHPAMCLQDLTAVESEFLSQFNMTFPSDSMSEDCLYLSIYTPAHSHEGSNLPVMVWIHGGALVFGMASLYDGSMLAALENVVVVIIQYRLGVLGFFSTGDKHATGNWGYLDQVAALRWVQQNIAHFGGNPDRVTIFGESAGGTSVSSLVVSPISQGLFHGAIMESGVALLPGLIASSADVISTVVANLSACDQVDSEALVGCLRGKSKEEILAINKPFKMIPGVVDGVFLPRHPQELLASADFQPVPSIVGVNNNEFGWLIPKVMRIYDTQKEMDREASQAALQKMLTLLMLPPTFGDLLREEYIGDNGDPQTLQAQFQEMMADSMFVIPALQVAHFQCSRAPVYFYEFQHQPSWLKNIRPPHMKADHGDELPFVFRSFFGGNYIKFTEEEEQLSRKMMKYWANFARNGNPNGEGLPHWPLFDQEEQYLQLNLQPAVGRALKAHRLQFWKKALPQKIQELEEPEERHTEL
Procedure: as §3, §4

[5] = biological target: CES1A1 and CES2; set-up: method as in PMID 20810539; settings: human CES enzyme activity; isoform per drug not stated; read-out: inhibition constant (Ki); cited from earlier work
[6] = 150 μM p-nitrophenyl acetate, excipients 500 μM except F68, EL35, RH40, lecithin, PVP, sodium alginate 100 μg/ml

SMILES | imidapril hydrolase activity, percentage of control ([1]; 100 μM imidapril, excipients 500 μM except F68, EL35, RH40, lecithin, PVP, sodium alginate 100 μg/ml, control 1.83 nmol/min/mg) [%] | inhibition type, imidapril hydrolase activity ([1]; recombinant CES1A1) | Ki, imidapril hydrolase activity ([1]; recombinant CES1A1, imidapril 25-200 μM, mean ± S.E.) [µg/mL] | inhibition type, imidapril hydrolase activity [2] | p-nitrophenyl acetate hydrolase activity, percentage of control [3, 6] [%] | IC50, p-nitrophenyl acetate hydrolase activity ([3]; 150 μM substrate) [µg/mL] | p-nitrophenyl acetate hydrolase activity, percentage of control [4, 6] | IC50, p-nitrophenyl acetate hydrolase activity ([4]; 150 μM substrate) [µg/mL] | Ki [5] [nM]
CCCCCCCCCCCCOS(=O)(=O)[O-].[Na+] [SLS, sodium lauryl sulphate] | 2.9 | competitive-type | 0.04 ± 0.01 | competitive-type | 3.6 | 0.20 | 30–60% | 0.30 | 
CCC(C)(C)C(=O)O[C@H]1C[C@@H](C)C=C2C=C[C@H](C)[C@H](CC[C@@H]3C[C@@H](O)CC(=O)O3)[C@H]21 [simvastatin] |  |  |  |  |  |  |  |  | 110
Cc1c(C)c2c(c(C)c1O)CCC(C)(COc1ccc(CC3SC(=O)NC3=O)cc1)O2 (stereo not shown) [troglitazone] |  |  |  |  |  |  |  |  | 620
